Laboratory results from US20250042876A1, “HERBICIDAL PYRAZOLE PYRIMIDINE COMPOUNDS” (SYNGENTA CROP PROTECTION AG, priority 2021, published 2025).

system: Amaranthus palmeri (AMAPA); test: Post-emergence herbicidal test, glasshouse; type: in vivo; conditions: 250 g/ha, evaluated after 13 days
Procedure: (§1) Seeds of a variety of test species are sown in standard soil in pots Amaranthus palmeri (AMAPA), Amaranthus retoflexus (AMARE), Setaria faberi (SETFA), Echinochloa crus-galli (ECHCG), Ipomoea hederacea (IPOHE)). After cultivation for one day (pre-emergence) or after 8 days cultivation (post-emergence) under controlled conditions in a glasshouse (at 24/16° C., day/night; 14 hours light; 65% humidity), the plants are sprayed with an aqueous spray solution derived from the formulation of the technical active ingredient in acetone/water (50:50) solution containing 0.5% Tween 20 (polyoxyethelyene sorbitan monolaurate, CAS RN 9005-64-5). Compounds are applied at 250 g/ha unless otherwise stated. The test plants are then grown in a glasshouse under controlled conditions in a glasshouse (at 24/16° C., day/night; 14 hours light; 65% humidity) and watered twice daily. After 13 days for pre and post-emergence, the test is evaluated for the percentage damage caused to the plant. The biological activities are shown in the following table on a five-point scale (5=81-100%; 4=61-80%; 3=41-60%; 2=21-40%; 1=0-20%).

| Compound | AMAPA percentage damage caused to the plant (five-point scale) |
| --- | --- |
| FC(F)(F)c1cc(Cc2ncc(Cl)cn2)n(-c2ccc(Cl)nc2)n1 [Compound 1.009] | 5 (5=81-100%) |
| N#Cc1ccc(-n2nc(C#N)cc2Cc2ncc(Cl)cn2)cn1 [Compound 1.019] | 5 (5=81-100%) |
| N#Cc1cc(Cc2ncc(Cl)cn2)n(-c2ccc(Cl)nc2)n1 [Compound 1.020] | 5 (5=81-100%) |
| Clc1cnc(Cc2cc(I)nn2-c2ccc(Cl)nc2)nc1 [Compound 1.021] | 5 (5=81-100%) |
| FC(F)(Cl)c1cc(Cc2ncc(Cl)cn2)n(-c2ccc(Cl)nc2)n1 [Compound 1.022] | 5 (5=81-100%) |
| FC(F)(Cl)c1cc(Cc2ncc(Cl)cn2)n(-c2cnc(Cl)c(Cl)c2)n1 [Compound 1.023] | 5 (5=81-100%) |
| Fc1ccc(-n2nc(C(F)(F)Cl)cc2Cc2ncc(Cl)cn2)cc1F [Compound 1.024] | 5 (5=81-100%) |

system: Amaranthus retoflexus (AMARE); test: Post-emergence herbicidal test, glasshouse; type: in vivo; conditions: 250 g/ha, evaluated after 13 days
Procedure: as §1

| Compound | AMARE percentage damage caused to the plant (five-point scale) |
| --- | --- |
| FC(F)(F)c1cc(Cc2ncc(Cl)cn2)n(-c2ccc(Cl)nc2)n1 [Compound 1.009] | 5 (5=81-100%) |
| N#Cc1ccc(-n2nc(C#N)cc2Cc2ncc(Cl)cn2)cn1 [Compound 1.019] | 5 (5=81-100%) |
| N#Cc1cc(Cc2ncc(Cl)cn2)n(-c2ccc(Cl)nc2)n1 [Compound 1.020] | 5 (5=81-100%) |
| Clc1cnc(Cc2cc(I)nn2-c2ccc(Cl)nc2)nc1 [Compound 1.021] | 5 (5=81-100%) |
| FC(F)(Cl)c1cc(Cc2ncc(Cl)cn2)n(-c2ccc(Cl)nc2)n1 [Compound 1.022] | 5 (5=81-100%) |
| FC(F)(Cl)c1cc(Cc2ncc(Cl)cn2)n(-c2cnc(Cl)c(Cl)c2)n1 [Compound 1.023] | 5 (5=81-100%) |
| Fc1ccc(-n2nc(C(F)(F)Cl)cc2Cc2ncc(Cl)cn2)cc1F [Compound 1.024] | 5 (5=81-100%) |

system: Echinochloa crus-galli (ECHCG); test: Post-emergence herbicidal test, glasshouse; type: in vivo; conditions: 250 g/ha, evaluated after 13 days
Procedure: as §1

| Compound | ECHCG percentage damage caused to the plant (five-point scale) |
| --- | --- |
| FC(F)(F)c1cc(Cc2ncc(Cl)cn2)n(-c2ccc(Cl)nc2)n1 [Compound 1.009] | 5 (5=81-100%) |
| N#Cc1ccc(-n2nc(C#N)cc2Cc2ncc(Cl)cn2)cn1 [Compound 1.019] | 4 (4=61-80%) |
| N#Cc1cc(Cc2ncc(Cl)cn2)n(-c2ccc(Cl)nc2)n1 [Compound 1.020] | 5 (5=81-100%) |
| Clc1cnc(Cc2cc(I)nn2-c2ccc(Cl)nc2)nc1 [Compound 1.021] | 5 (5=81-100%) |
| FC(F)(Cl)c1cc(Cc2ncc(Cl)cn2)n(-c2ccc(Cl)nc2)n1 [Compound 1.022] | 5 (5=81-100%) |
| FC(F)(Cl)c1cc(Cc2ncc(Cl)cn2)n(-c2cnc(Cl)c(Cl)c2)n1 [Compound 1.023] | 4 (4=61-80%) |
| Fc1ccc(-n2nc(C(F)(F)Cl)cc2Cc2ncc(Cl)cn2)cc1F [Compound 1.024] | 5 (5=81-100%) |

system: Ipomoea hederacea (IPOHE); test: Post-emergence herbicidal test, glasshouse; type: in vivo; conditions: 250 g/ha, evaluated after 13 days
Procedure: as §1

| Compound | IPOHE percentage damage caused to the plant (five-point scale) |
| --- | --- |
| FC(F)(F)c1cc(Cc2ncc(Cl)cn2)n(-c2ccc(Cl)nc2)n1 [Compound 1.009] | 4 (4=61-80%) |
| N#Cc1ccc(-n2nc(C#N)cc2Cc2ncc(Cl)cn2)cn1 [Compound 1.019] | 3 (3=41-60%) |
| N#Cc1cc(Cc2ncc(Cl)cn2)n(-c2ccc(Cl)nc2)n1 [Compound 1.020] | 4 (4=61-80%) |
| Clc1cnc(Cc2cc(I)nn2-c2ccc(Cl)nc2)nc1 [Compound 1.021] | 4 (4=61-80%) |
| FC(F)(Cl)c1cc(Cc2ncc(Cl)cn2)n(-c2ccc(Cl)nc2)n1 [Compound 1.022] | 3 (3=41-60%) |
| FC(F)(Cl)c1cc(Cc2ncc(Cl)cn2)n(-c2cnc(Cl)c(Cl)c2)n1 [Compound 1.023] | 3 (3=41-60%) |
| Fc1ccc(-n2nc(C(F)(F)Cl)cc2Cc2ncc(Cl)cn2)cc1F [Compound 1.024] | 4 (4=61-80%) |

system: Amaranthus palmeri (AMAPA); test: Pre-emergence herbicidal test, glasshouse; type: in vivo; conditions: 250 g/ha, evaluated after 13 days
Procedure: as §1

| Compound | AMAPA percentage damage caused to the plant (five-point scale) |
| --- | --- |
| FC(F)(F)c1cc(Cc2ncc(Cl)cn2)n(-c2ccc(Cl)nc2)n1 [Compound 1.009] | 5 (5=81-100%) |
| N#Cc1ccc(-n2nc(C#N)cc2Cc2ncc(Cl)cn2)cn1 [Compound 1.019] | 5 (5=81-100%) |
| N#Cc1cc(Cc2ncc(Cl)cn2)n(-c2ccc(Cl)nc2)n1 [Compound 1.020] | 5 (5=81-100%) |
| Clc1cnc(Cc2cc(I)nn2-c2ccc(Cl)nc2)nc1 [Compound 1.021] | 5 (5=81-100%) |
| FC(F)(Cl)c1cc(Cc2ncc(Cl)cn2)n(-c2ccc(Cl)nc2)n1 [Compound 1.022] | 5 (5=81-100%) |
| FC(F)(Cl)c1cc(Cc2ncc(Cl)cn2)n(-c2cnc(Cl)c(Cl)c2)n1 [Compound 1.023] | 5 (5=81-100%) |
| Fc1ccc(-n2nc(C(F)(F)Cl)cc2Cc2ncc(Cl)cn2)cc1F [Compound 1.024] | 5 (5=81-100%) |

system: Amaranthus retoflexus (AMARE); test: Pre-emergence herbicidal test, glasshouse; type: in vivo; conditions: 250 g/ha, evaluated after 13 days
Procedure: as §1

| Compound | AMARE percentage damage caused to the plant (five-point scale) |
| --- | --- |
| FC(F)(F)c1cc(Cc2ncc(Cl)cn2)n(-c2ccc(Cl)nc2)n1 [Compound 1.009] | 5 (5=81-100%) |
| N#Cc1ccc(-n2nc(C#N)cc2Cc2ncc(Cl)cn2)cn1 [Compound 1.019] | 5 (5=81-100%) |
| N#Cc1cc(Cc2ncc(Cl)cn2)n(-c2ccc(Cl)nc2)n1 [Compound 1.020] | 5 (5=81-100%) |
| Clc1cnc(Cc2cc(I)nn2-c2ccc(Cl)nc2)nc1 [Compound 1.021] | 5 (5=81-100%) |
| FC(F)(Cl)c1cc(Cc2ncc(Cl)cn2)n(-c2ccc(Cl)nc2)n1 [Compound 1.022] | 5 (5=81-100%) |
| FC(F)(Cl)c1cc(Cc2ncc(Cl)cn2)n(-c2cnc(Cl)c(Cl)c2)n1 [Compound 1.023] | 5 (5=81-100%) |
| Fc1ccc(-n2nc(C(F)(F)Cl)cc2Cc2ncc(Cl)cn2)cc1F [Compound 1.024] | 5 (5=81-100%) |

system: Echinochloa crus-galli (ECHCG); test: Pre-emergence herbicidal test, glasshouse; type: in vivo; conditions: 250 g/ha, evaluated after 13 days
Procedure: as §1

| Compound | ECHCG percentage damage caused to the plant (five-point scale) |
| --- | --- |
| FC(F)(F)c1cc(Cc2ncc(Cl)cn2)n(-c2ccc(Cl)nc2)n1 [Compound 1.009] | 5 (5=81-100%) |
| N#Cc1ccc(-n2nc(C#N)cc2Cc2ncc(Cl)cn2)cn1 [Compound 1.019] | 4 (4=61-80%) |
| N#Cc1cc(Cc2ncc(Cl)cn2)n(-c2ccc(Cl)nc2)n1 [Compound 1.020] | 5 (5=81-100%) |
| Clc1cnc(Cc2cc(I)nn2-c2ccc(Cl)nc2)nc1 [Compound 1.021] | 5 (5=81-100%) |
| FC(F)(Cl)c1cc(Cc2ncc(Cl)cn2)n(-c2ccc(Cl)nc2)n1 [Compound 1.022] | 5 (5=81-100%) |
| FC(F)(Cl)c1cc(Cc2ncc(Cl)cn2)n(-c2cnc(Cl)c(Cl)c2)n1 [Compound 1.023] | 5 (5=81-100%) |
| Fc1ccc(-n2nc(C(F)(F)Cl)cc2Cc2ncc(Cl)cn2)cc1F [Compound 1.024] | 5 (5=81-100%) |

system: Ipomoea hederacea (IPOHE); test: Pre-emergence herbicidal test, glasshouse; type: in vivo; conditions: 250 g/ha, evaluated after 13 days
Procedure: as §1

| Compound | IPOHE percentage damage caused to the plant (five-point scale) |
| --- | --- |
| FC(F)(F)c1cc(Cc2ncc(Cl)cn2)n(-c2ccc(Cl)nc2)n1 [Compound 1.009] | 5 (5=81-100%) |
| N#Cc1ccc(-n2nc(C#N)cc2Cc2ncc(Cl)cn2)cn1 [Compound 1.019] | 5 (5=81-100%) |
| N#Cc1cc(Cc2ncc(Cl)cn2)n(-c2ccc(Cl)nc2)n1 [Compound 1.020] | 5 (5=81-100%) |
| Clc1cnc(Cc2cc(I)nn2-c2ccc(Cl)nc2)nc1 [Compound 1.021] | 5 (5=81-100%) |
| FC(F)(Cl)c1cc(Cc2ncc(Cl)cn2)n(-c2ccc(Cl)nc2)n1 [Compound 1.022] | 5 (5=81-100%) |
| FC(F)(Cl)c1cc(Cc2ncc(Cl)cn2)n(-c2cnc(Cl)c(Cl)c2)n1 [Compound 1.023] | 5 (5=81-100%) |
| Fc1ccc(-n2nc(C(F)(F)Cl)cc2Cc2ncc(Cl)cn2)cc1F [Compound 1.024] | 5 (5=81-100%) |
